Test results taken from patent publication US20240132461A1, “FLAVONE DEAZA SPERMIDINE ANALOGUES AND THEIR USE TREATING CANCER” (FLORATEK PHARMA S.A., priority 2021, published 2024).
Each block holds one compound with its values, some of them ahead of it.

Experiments:
HCT-116 = assay: Cell viability assay, colon cancer cell line HCT-116; assay type: cell-based
Experimental: (§1) Antitumor activity of the compounds and doxorubicin as a positive control was assessed by using the CellTiter-Blue Cell Viability Assay (Promega, #G8082) or CellTiter-Glow® Luminescent Cell Viability assay (Promega # G7572) according to the manufacturer's instructions. The compounds were tested at 5 or 6 concentrations in half-log increments (highest concentration 30 μM-100 μM) in duplicate or triplicate well conditions.
Tumor cells were grown at 37° C. in a humidified atmosphere with 5% CO2 in RPMI 1640 or DMEM medium, supplemented with 10% (v/v) fetal calf serum and 50 μg/ml gentamicin for up to 20 passages, and were passaged once or twice weekly. Cells were harvested using TrypLE or PBS buffer containing 1 mM EDTA, and the percentage of viable cells is determined using a CASY Model TT cell counter (OMNI Life Science). Cells were harvested from exponential phase cultures, counted and plated in 96 well flat-bottom microtiter plates at a cell density depending on the cell line's growth rate (4,000-20,000 cells/well depending on the cell line's growth rate, up to 60,000 for hematological cancer cell lines) in RPMI 1640 or DMEM medium supplemented with 10% (v/v) fetal calf serum and 50 μg/ml gentamicin (140 μl/well). […] Viability of cells was quantified by the CellTiter-Blue® cell viability assay (Promega G8081) or CellTiter-Glow® Luminescent Cell Viability assay (Promega # G7572). […]

lung carcinoma cell = assay: Cell viability assay, lung carcinoma cell lines (summary); assay type: cell-based; conditions: summary of Tables 7A-E; read-out: IC50s, lung carcinoma cell growth
Experimental: as §1
(§2) Tumor cells were grown at 37° C. in a humidified atmosphere with 5% CO2 in RPMI 1640 or DMEM medium, supplemented with 10% (v/v) fetal calf serum and 50 μg/ml gentamicin for up to 20 passages, and were passaged once or twice weekly. Cells were harvested using TrypLE or PBS buffer containing 1 mM EDTA, and the percentage of viable cells is determined using a CASY Model TT cell counter (OMNI Life Science). Cells were harvested from exponential phase cultures, counted and plated in 96 well flat-bottom microtiter plates at a cell density depending on the cell line's growth rate (4,000-20,000 cells/well depending on the cell line's growth rate, up to 60,000 for hematological cancer cell lines) in RPMI 1640 or DMEM medium supplemented with 10% (v/v) fetal calf serum and 50 μg/ml gentamicin (140 μl/well). Cultures were incubated at 37° C. and 5% CO2 in a humidified atmosphere. After 24 h, 10 μl of test compounds or control medium are added, and left on the cells for another 72 h. Compounds were serially diluted in DMSO, transferred in cell culture medium, and added to the assay plates. The DMSO concentration was kept constant at <0.3% v/v across the assay plate. Viability of cells was quantified by the CellTiter-Blue® cell viability assay (Promega G8081) or CellTiter-Glow® Luminescent Cell Viability assay (Promega # G7572). Fluorescence (FU) was measured by using the EnSpire® multimode plate reader (Perkin Elmer) (excitation λ=570 nm, emission λ=600 nm) or luminescent detection of ATP in viable cells was used as parameter for proliferation. Luminescence was measured with the microplate luminometer (Promega or Perkin Elmer).
(§3) Sigmoidal concentration-response curves were fitted to the data points (test-versus-control, T/C values) obtained for each tumor model using 4 parameter non-linear curve fit (Charles River DRS Datawarehouse Software) or with GraphPad prism 5.02 software. IC50 values are reported as absolute IC50 values, being the concentration of test compound at the intersection of the concentration-response curves with T/C=50%

NCI-H1299 = assay: Cell viability assay, non-small cell lung carcinoma cell line NCI-H1299; assay type: cell-based; conditions: Homo sapiens
Experimental: as §1, §2, §3

CALU-6 = assay: Cell viability assay, non-small cell lung carcinoma cell line CALU-6; assay type: cell-based; conditions: Homo sapiens; CALU-6 non-small cell lung carcinoma cell line
Experimental: as §1, §2, §3

DMS114 = assay: Cell viability assay, small cell lung carcinoma cell line DMS114; assay type: cell-based; conditions: Homo sapiens, DMS-114
Experimental: as §1
as §2, with “Elmer). […]” for “Elmer).”

NCI-H292 = assay: Cell viability assay, mucoepidermoid pulmonary and adenocarcinoma, NCI-H292; assay type: cell-based; conditions: Homo sapiens
Experimental: as §1
as §2, with “Elmer). […]” for “Elmer).”

HL-60 = assay: Cell viability assay, acute promyelocytic leukemia cell line HL-60; assay type: cell-based; conditions: Homo sapiens; HL-60 acute promyelocytic leukemia cell line
Experimental: as §1, §2, §3

NCI-H1437 = assay: Cell viability assay, non-small lung carcinoma cell line NCI-H1437; assay type: cell-based; conditions: Homo sapiens
Experimental: as §1, §2, §3

U-87MG = assay: Cell viability assay, brain carcinoma cell line U-87MG; assay type: cell-based; conditions: Homo sapiens; U-87MG brain carcinoma cell line, 72 h, absolute IC50
Experimental: as §1, §2, §3

NCI-H441 = assay: Cell viability assay, mucoepidermoid pulmonary and adenocarcinoma, NCI-H441; assay type: cell-based; conditions: Homo sapiens
Experimental: as §1
as §2, with “Elmer). […]” for “Elmer).”

LN-229 = assay: Cell viability assay, brain carcinoma cell line LN-229; assay type: cell-based; conditions: Homo sapiens; LN-229 brain carcinoma cell line, 72 h, absolute IC50
Experimental: as §1, §2, §3

breast cancer cell = assay: Cell viability assay, breast cancer cell lines (summary); assay type: cell-based; conditions: summary of Tables 4A and 4B; read-out: IC50s, breast cancer cell growth
Experimental: as §1, §2, §3

MDA-MB-468 = assay: Cell viability assay, breast carcinoma cell line MDA-MB-468; assay type: cell-based; conditions: Homo sapiens; MDA-MB-468 breast carcinoma cell line
Experimental: as §1
as §2, with “Elmer). […]” for “Elmer).”

U-251 = assay: Cell viability assay, brain carcinoma cell line U-251; assay type: cell-based; conditions: Homo sapiens; U-251 brain carcinoma cell line, 72 h, absolute IC50
Experimental: as §1, §2, §3

brain cancer cell = assay: Cell viability assay, brain cancer cell lines (summary); assay type: cell-based; conditions: summary of Tables 3A-D; read-out: IC50s, brain cancer cell growth
Experimental: as §1, §2, §3

MeWo = assay: Cell viability assay, melanoma cell line MeWo; assay type: cell-based; conditions: Homo sapiens
Experimental: as §1
as §2, with “Elmer). […]” for “Elmer).”

SH-SY-5Y = assay: Cell viability assay, brain carcinoma cell line SH-SY-5Y; assay type: cell-based; conditions: Homo sapiens, SH-SY5Y; SH-SY-5Y brain carcinoma cell line, 72 h, absolute IC50
Experimental: as §1
as §2, with “Elmer). […]” for “Elmer).”

melanoma cell lines = assay: Cell viability assay, melanoma cell lines (summary); assay type: cell-based; conditions: summary of Tables 14A and 14B; read-out: IC50s, melanoma cell lines growth
Experimental: as §1, §2, §3

A375 = assay: Cell viability assay, melanoma cell line A375; assay type: cell-based; conditions: Homo sapiens, A-375
Experimental: as §1, §2, §3

Panc-1 = assay: Cell viability assay, pancreatic carcinoma cell line Panc-1; assay type: cell-based; conditions: Homo sapiens; Panc-1 pancreatic carcinoma cell line
Experimental: as §1, §2, §3

H69AR = assay: Cell viability assay, resistant small cell lung carcinoma cell line H69AR; assay type: cell-based; conditions: H69AR multiple drug resistant small cell lung carcinoma cell line
Experimental: as §1, §2, §3
The multiple drug resistant cell line H69AR obtained from ATCC, was established from NCI-H69 cells that were grown in the presence of increasing concentrations of adriamycin (doxorubicin). The H69AR cell line is approximately 50-fold resistant to adriamycin as compared to the parental NCI-H69 cell line. SND141, SND142, SND143, SND146, SND147 and SND148 inhibited the resistant cell line H69AR with IC50s below 5 μM, as presented in Table 8.

[1] = In vivo maximum tolerated dose in NOG mice
Experimental: In order to evaluate the general toxicity of selected SND compounds in an animal model, a maximum tolerated dose (MTD) in NOG mice has been undertaken. Three mice per group were treated daily or every other day over 8 days at various doses between 5 mg/kg and 10 mg/kg. Administration of the compounds was i.p. A stock solution of the compounds (40 mg/ml in DMSO) was prepared and frozen at −20° C. in aliquots for each treatment. […] Body weights were measured before each treatment. Mice were further observed for 1 week after the last treatment.

[2] = tested on: pancreatic carcinoma cell; assay: Cell viability assay, pancreatic carcinoma cell lines (summary); assay type: cell-based; conditions: summary of Table 12; read-out: IC50s, pancreatic carcinoma cell growth
Experimental: as §1, §2, §3

MIA-Pa-Ca-2 = assay: Cell viability assay, pancreatic carcinoma cell line MIA-Pa-Ca-2; assay type: cell-based; conditions: Homo sapiens, MIA PaCa-2; MIA-Pa-Ca-2 pancreatic carcinoma cell line
Experimental: as §1, §2, §3

SMILES: CCN(CCCCc1ccc(-c2cc(=O)c3ccc4c(c3o2)OCO4)cc1)Cc1ccccc1OC [SND394]
IC50 (CALU-6): 8.9 µM
IC50 (DMS114): 3.1 µM
IC50 (lung carcinoma cell): < 20 µM
IC50 (NCI-H292): 1.9 µM
IC50 (HL-60): 2.8 µM
IC50 (NCI-H1437): 2.1 µM
IC50 (U-87MG): 7.6 µM
IC50 (NCI-H441): 3.2 µM
IC50 (LN-229): 2.9 µM
IC50 (breast cancer cell): < 10 µM
IC50 (MDA-MB-468): 3.8 µM
IC50 (U-251): 7.6 µM
IC50 (brain cancer cell): < 10 µM

SMILES: CN(CCCCc1ccc(-c2cc(=O)c3ccc4c(c3o2)OCO4)cc1)C12CC3CC(CC(C3)C1)C2 [SND393]
IC50 (CALU-6): 7 µM
IC50 (SH-SY-5Y): 4.7 µM
IC50 (lung carcinoma cell): < 20 µM
IC50 (melanoma cell lines): < 10 µM
IC50 (U-87MG): 7.1 µM
IC50 (breast cancer cell): < 10 µM
IC50 (MDA-MB-468): 3.2 µM
IC50 (U-251): 6.8 µM
IC50 (brain cancer cell): < 10 µM
IC50 (A375): 2.7 µM

SMILES: COc1c(O)ccc2c(=O)cc(-c3ccc(CCCCN4CCOCC4)cc3)oc12 [SND147, 7-hydroxy-8-methoxy-2-(4-(4-morpholinobutyl)phenyl)-4H-chromen-4-one]
IC50 (CALU-6): 12.2 µM
IC50 (Panc-1): 3.8 µM
IC50 (H69AR): 2.6 µM
IC50 (H69AR; Homo sapiens, H69AR): < 5 µM
tolerability at the highest dose administered ([1]; 8-10 mg/kg i.p., daily or every other day over 8 days): well tolerated
MTD at 8 days ([1]; mouse, in vivo, ip, repeated i.p. administration, MTD not reached, read-out: maximum tolerated dose (MTD), estimated): > 10 mg/kg
IC50 [2]: < 10 µM
IC50 (lung carcinoma cell): < 20 µM
IC50 (MIA-Pa-Ca-2): 2.02 µM

Now from value to compound:

IC50 (HCT-116; HCT-116 colon cancer cell line): 11.4 µM
IC50 (HCT-116; Homo sapiens, HCT-116, HCT-116 colon cancer cell line): < 20 µM
SMILES: O=c1cc(-c2ccc(CCCN3CCCCC3)cc2)oc2c(O)c(O)ccc12 [SND172]

IC50 (lung carcinoma cell): < 20 µM
IC50 (NCI-H1299): 2.7 µM
SMILES: COc1c(O)ccc2c(=O)cc(-c3ccc(CN(C)CCN4CCCCC4)cc3)oc12 [SND167]

IC50 (CALU-6): 4 µM
IC50 (MeWo): 1.9 µM
IC50 (DMS114): 1.1 µM
IC50 (SH-SY-5Y): 3 µM
IC50 (lung carcinoma cell): < 20 µM
IC50 (NCI-H292): 0.98 µM
IC50 (HL-60): 2.4 µM
IC50 (melanoma cell lines): < 10 µM
IC50 (NCI-H1437): 1.4 µM
IC50 (U-87MG): 5.1 µM
IC50 (NCI-H441): 1.2 µM
IC50 (LN-229): 2.8 µM
IC50 (breast cancer cell): < 10 µM
IC50 (MDA-MB-468): 1.2 µM
IC50 (U-251): 3.9 µM
IC50 (brain cancer cell): < 10 µM
IC50 (A375): 1.3 µM
SMILES: CN(CCCCc1ccc(-c2cc(=O)c3ccc4c(c3o2)OCO4)cc1)CCCN1CCCCC1 [SND391]

IC50 (lung carcinoma cell): < 20 µM
IC50 (NCI-H1299): 3.7 µM
SMILES: COc1c(O)ccc2c(=O)cc(-c3ccc(CN4CCCCC4)cc3)oc12 [SND168]
